Source: US7329757B2 (Bayer Aktiengesellschaft, priority 2000, dated 2008)

How the values were obtained:
[1] = logP determination by HPLC on reversed-phase column (C 18), EEC Directive 79/831 Annex V.A8; assay type: physicochemical
Method: The calibration was carried out using unbranched alkan-2-ones (having 3 to 16 carbon atoms) with known logP values (determination of the logP values by the retention times using linear interpolation between two successive alkanones).

[2] = system: weeds; assay: Pre-emergence test (Example A), damage to weeds; assay type: in vivo; settings: soil sprayed 24 hours after sowing, rated after three weeks
Method: (§1) To produce a suitable preparation of active compound, 1 part by weight of active compound is mixed with the stated amount of solvent, the stated amount of emulsifier is added and the concentrate is diluted with water to the desired concentration.
Seeds of the test plants are sown in normal soil. After 24 hours, the soil is sprayed with the preparation of active compound such that the particular amount of active compound desired is applied per unit area. The concentration of active compound in the spray liquors is chosen so that the particular amount of active compound desired is applied in 1000 litres of water per hectare.
After three weeks, the degree of damage to the plants is rated in % damage in comparison to the development of the untreated control.

[3] = system: weeds; assay: Post-emergence test (Example B), damage to weeds; assay type: in vivo; settings: test plants of 5-15 cm sprayed, rated after three weeks
Method: as §1
Test plants of a height of 5-15 cm are sprayed with the preparation of active compound such that the particular amounts of active compound desired are applied per unit area. The concentration of the spray liquor is chosen so that the particular amounts of active compound desired are applied in 1000 l of water/ha.
After three weeks, the degree of damage to the plants is rated in % damage in comparison to the development of the untreated controls.

| melting point | Molecule | activity against weeds (degree of damage) [2] | also measured |
| --- | --- | --- | --- |
| – | 5-methyl-1-(2,3-difluoromethylenedioxy-phenyl)-2(1H)-pyridinone [IX-28] | – | logP [1]: 3.95 |
| 115 °C | Cc1cc/c(=N\C(=O)C(F)(F)F)n(-c2cccc(C(F)(F)F)c2)c1 [Example 1, 2,2,2-trifluoro-N-[5-methyl-1-(3-trifluoromethylphenyl)-2(1H)-pyridinylidene]-acetamide] | strong activity against weeds | activity against weeds (degree of damage) [3]: strong activity against weeds |
| – | Cc1ccc(=NC(=O)OC(C)C)n(-c2cccc(C(F)(F)F)c2)c1 [Example 2] | strong activity against weeds | chromatographic logP ([1]; HPLC, range (acidic/neutral) not labelled): 1.59 |
| 165 °C | Cc1cc/c(=N\C#N)n(-c2cccc(C(F)(F)F)c2)c1 [Example 3, 5-methyl-1-(3-trifluoromethyl-phenyl)-2(1H)-pyridinylidenecyanamide] | strong activity against weeds | activity against weeds (degree of damage) [3]: strong activity against weeds |
| 114 °C | CNC(=O)/N=c1\ccc(C)cn1-c1cccc(C(F)(F)F)c1 [Example 4, N-methyl-N′-[5-methyl-1-(3-trifluoromethylphenyl)-2(1H)-pyridinylidene]-urea] | – | – |
| 206 °C | Cc1ccc(=NS(=O)(=O)C(F)(F)F)n(-c2cccc(C(F)(F)F)c2)c1 [Example 5, N-[5-methyl-1-(3-trifluoromethyl-phenyl)-2(1H)-pyridinylidene]-trifluoromethanesulphonamide] | – | – |
| 179 °C | Cc1cc/c(=N\c2nnc(C(F)(F)F)s2)n(-c2cccc(C(F)(F)F)c2)c1 [Example 6, N-(5-trifluoromethyl-1,3,4-thiadiazol-2-yl)-5-methyl-1-(3-trifluoromethyl-phenyl)-2(1H)-pyridinimine] | – | – |
| 174 °C | Cc1ccc(S(=O)(=O)/N=c2\ccc(C)cn2-c2cccc(C(F)(F)F)c2)cc1 [Example 7, 4-methyl-N-[5-methyl-1-(3-trifluoromethylphenyl)-2(1H)-pyridinylidene]-benzenesulphonamide] | – | – |
| – | Cc1cc/c(=N\C2CC2)n(-c2cccc(C(F)(F)F)c2)c1 [Example 8, N-cyclopropyl-5-methyl-1-(3-trifluoromethylphenyl)-2(1H)-pyridineimine] | – | chromatographic logP ([1]; reversed-phase HPLC column (C 18), HPLC, range (acidic/neutral) not labelled): 1.51 |
| 95 °C | Cc1ccc(=O)n(-c2cccc(C(F)(F)F)c2)c1 [IX-1, 5-methyl-1-(3-trifluoromethyl-phenyl)-2(1H)-pyridinone] | strong activity against weeds | activity against weeds (degree of damage) [3]: strong activity against weeds |
| 122 °C | Cc1cccn(-c2cccc(C(F)(F)F)c2)c1=O [IX-34, 3-methyl-1-(3-trifluoromethyl-phenyl)-2(1H)-pyridinone] | – | – |
| – | O=c1ccc(C(F)(F)F)cn1-c1cccc(C(F)(F)F)c1 [IX-35, 5-trifluoromethyl-1-(3-trifluoromethyl-phenyl)-2(1H)-pyridinone] | – | chromatographic logP ([1]; reversed-phase HPLC column (C 18); labelled a): acidic range, 0.1% aqueous phosphoric acid/acetonitrile gradient, 43° C.): 2.78 |
